Experimental data reported in patent US9902713B2, “Neuroprotective compounds and use thereof” (BOARD OF REGENTS OF THE UNIVERSITY OF TEXAS SYSTEM, priority 2013, dated 2018).
“Also recorded” adds a separate entry of the source.

Key:
[1] = tested on: cultured hippocampal neurons; test: MPP+ toxicity in cultured neurons (MTT); type: cell-based; details: 10 μM compound, 10 μM MPP+, 24 hrs
Experimental: FIGS. 35A-35B show P7C3-S243 and P7C3-A20 protect cultured hippocampal and cortical neurons from MPP^+ toxicity. […] Experiments were performed 2 independent times with 8-12 replicates of each sample both times.

Protein binding = type: in vitro ADME
[2] = Long-term treatment: weight, behavior, appearance
degenerating axons = test: Silver staining of degenerating axons after blast-mediated TBI
Experimental: Optical densitometry of silver-stained tissue was used to quantify the magnitude of staining, such that greater impedance of light through the section reflected greater axonal degeneration (FIG. 18B).
All brains were stored in a freezer at −80° C. before sectioning. […] Every 1st-12th sections of each series of 12 sections (interval: 480 μm) were collected separately. All sections were stored free-floating in FD sections storage solution (FD Neurotechnologies, Columbia, Md.) at −20° C. before further processing.
For silver staining, sections were collected in 0.1 M phosphate buffer (pH 7.4) containing 4% paraformaldehyde and fixed for 5 days at 4° C. Sections were then processed for the detection of neurodegeneration with FD NeuroSilver Kit II (FD Neurotechnologies) according to the manufacturer's instructions (for detailed procedures, cf. the manual of PK301, available at www.fdneurotech.com). Subsequently, all sections were mounted on slides, dehydrated in ethanol, cleared in xylene, and coverslipped with Permount (Fisher Scientific, Fair Lawn, N.J.).
The microscope light intensity and camera exposure were held constant. The operator outlined areas of interest around specific brain regions and recorded the intensity of light passing through the slide. Degenerating axons allowed less light to pass through the section due to their uptake of silver stain, so lower light intensity correlated with increased degeneration. Operator performing quantification was blinded to condition and treatment.

[3] = tested on: newborn hippocampal neurons; test: In vivo neuroprotection assay: BrdU+ newborn hippocampal neurons; design: species or system mice
Experimental: Results. Our most robust assay involves monitoring neuroprotection of newborn hippocampal neurons in mice because this assay gives a simultaneous readout of efficacy, acute toxicity and cell permeability. For this reason, all analogs of P7C3 were evaluated initially by infusing them directly into the left lateral ventricle of environmentally-deprived^ix live mice using a subcutaneously implanted osmotic minipump. Compounds were delivered intracerebroventricularly (ICV) over a 7 day period at a concentration of 10 μM (12 μL/d).^x Coincident with ICV administration of drug, mice were dosed daily with the thymidine analog bromodeoxyuridine (BrdU, IP, 50 mg/kg) to mark newly born hippocampal neural precursor cells. At the end of the 1 week dosing, animals were sacrificed and transcardially perfused. Brain slices were stained with antibodies to BrdU, and the number of surviving neural precursor cells was quantified by counting the number of BrdU+ cells in the hippocampal dentate gyrus. To avoid complications arising from the surgical implantation of the pump, we quantified neurogenesis in the hemisphere opposite to compound infusion. Finally, to obtain consistent data across many animals, the number of BrdU+ cells was normalized to the volume of the dentate gyrus.
In Vivo Neuroprotection Assay. Test compounds were evaluated as described previously.^2 Compounds were infused intracerebroventricularly (i.c.v.) into the left lateral ventricle of four adult (12 week old) wild-type C57BL/J6 mice by means of surgically implanted Alzet osmotic minipumps that delivered solution into animals at a constant rate of 0.5 μl/hour for 7 days. Alternatively, compounds were administered intraperitoneally twice daily. Bromodeoxyuridine (BrdU) was injected intraperitoneally at 50 mg/kg/day for six days during pump infusion. Twenty-four hours after the final BrdU administration, mice were sacrificed by transcardial perfusion with 4% paraformaldehyde at pH 7.4, and their brains were processed for immunohistochemical detection of incorporated BrdU in the SGZ. Dissected brains were immersed in 4% paraformaldehyde overnight at 4° C., then cryoprotected in sucrose before being sectioned into 40 μm thick free-floating sections. Unmasking of BrdU antigen was achieved through incubating tissue sections for two hours in 50% formamide/2×SSC at 65° C., followed by a five minute wash in 2×SSC and subsequent incubation for thirty minutes in 2M HCl at 37° C. Sections were processed for immunohistochemical staining with mouse monoclonal anti-BrdU (1:100). The number of BrdU+ cells in the entire dentate gyrus SGZ in the contralateral hemisphere (opposite side of surgically implanted pump) was quantified by counting BrdU+ cells within the SGZ and dentate gyrus in every fifth section throughout the entire hippocampus and then normalizing for dentate gyrus volume.

[4] = Metabolic stability in hepatocytes; type: in vitro ADME; details: murine hepatocytes
Experimental: The pharmacokinetic and toxicity profiles of P7C3-S243 were evaluated using both in vivo and in vitro methods. Having observed near complete metabolic stability in the presence of murine hepatocytes (T1/2>240 min), we monitored plasma and brain levels of the compound following IV, oral and IP dosing.

6-OHDA-exposed rats = test: 6-OHDA rat model of Parkinson's disease; type: in vivo
Experimental: (FIG. 34A) Schematic of the experimental design illustrates that rats received a unilateral stereotactic injection of 6-OHDA or saline in the medial forebrain bundle (MFB), followed by daily injection of P7C3-S243 for 7 days. Open field and cylinder tests were performed 8-10 days after 6-OHDA injection, and the amphetamine circling test was conducted on day 11. Rats were transcardially perfused on day 14, and brain tissue was processed for neurochemistry and immunohistochemistry analysis. […] Scale bars=250 μm. […] No difference was found in the concentration of serotonin in all groups (one-way ANOVA). For all experiments in FIG. 34, n=10 per group except for the HPLC analysis, for which n=7.
FIGS. 36A-36F show pretreatment with P7C3-A20 or P7C3-S243 (10 mg/kg/day) protects rats from 6-OHDA toxicity. (FIG. 36A) Schematic of the experimental design illustrates that rats were pretreated for 3 days with either P7C3-A20 or P7C3-S243, and then administered either 6-OHDA or saline by stereotactic injection in the medial forebrain bundle (MFB), followed by 7 more days of treatment with either P7C3-A20 or P7C3-S243. Open field and cylinder tests were performed between days 8-10, and the amphetamine circling test was performed on day 11. Rats were transcardially perfused on day 14, and brain tissue was processed for neurochemistry and immunohistochemistry analysis. […] Scale bars=250 μm.
FIGS. 37A-37B show treatment of 6-OHDA-exposed rats with P7C3-S243 preserves both TH and NeuN staining, illustrating that TH staining corresponds to neuronal survival. […] DAPI was used as a nuclear marker.

2B6 = 2B6 (Homo sapiens, UniProt P20813); test: Cytochrome P450 inhibition; type: in vitro ADME
H2122 = test: Toxicity towards human cancer cell line; type: cell-based; details: NCI-H2122
blast-injured mice = test: Barnes maze, treatment begun 10 months after blast injury; type: in vivo
Text: After 8 weeks of treatment, mice were completely withdrawn from treatment with vehicle or compound.

2C8 = 2C8 (Homo sapiens, UniProt P10632); test: Cytochrome P450 inhibition; type: in vitro ADME
[5] = tested on: motor neurons in the spinal cord; details: previously reported; cited from earlier work
[6] = tested on: intracellular levels of NAD; test: Intracellular NAD levels by mass spectrometry; type: cell-based; details: 3 uM, 12 hrs
Text: Cultured cells were exposed to varying levels of “A20” (X-axis) for 12 hrs. Intracellular levels of NAD (Y-axis) were monitored by mass spectrometry.

U2OS cells = test: Protection from doxorubicin-mediated toxicity (Dox:Tox); type: cell-based
[7] = 10 mg/kg/day, 7 days after 6-OHDA
[8] = 10 mg/kg/day, pretreated 3 days plus 7 more days
[9] = single enantiomers, 3 mg/kg/day

Sequence of 2B6 (P20813 whole entry): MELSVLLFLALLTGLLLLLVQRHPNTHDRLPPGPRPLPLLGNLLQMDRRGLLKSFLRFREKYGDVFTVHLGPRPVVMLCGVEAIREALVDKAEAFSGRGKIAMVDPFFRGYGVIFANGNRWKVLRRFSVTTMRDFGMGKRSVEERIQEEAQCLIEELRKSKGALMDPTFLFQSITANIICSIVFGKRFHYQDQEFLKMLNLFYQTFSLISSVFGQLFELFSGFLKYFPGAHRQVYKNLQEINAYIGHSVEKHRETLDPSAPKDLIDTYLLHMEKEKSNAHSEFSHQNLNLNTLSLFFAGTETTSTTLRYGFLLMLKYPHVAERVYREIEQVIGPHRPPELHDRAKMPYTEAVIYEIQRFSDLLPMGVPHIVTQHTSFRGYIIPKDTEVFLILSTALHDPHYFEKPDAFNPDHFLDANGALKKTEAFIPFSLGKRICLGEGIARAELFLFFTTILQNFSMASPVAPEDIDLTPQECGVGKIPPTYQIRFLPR
Sequence of 2C8 (P10632 whole entry): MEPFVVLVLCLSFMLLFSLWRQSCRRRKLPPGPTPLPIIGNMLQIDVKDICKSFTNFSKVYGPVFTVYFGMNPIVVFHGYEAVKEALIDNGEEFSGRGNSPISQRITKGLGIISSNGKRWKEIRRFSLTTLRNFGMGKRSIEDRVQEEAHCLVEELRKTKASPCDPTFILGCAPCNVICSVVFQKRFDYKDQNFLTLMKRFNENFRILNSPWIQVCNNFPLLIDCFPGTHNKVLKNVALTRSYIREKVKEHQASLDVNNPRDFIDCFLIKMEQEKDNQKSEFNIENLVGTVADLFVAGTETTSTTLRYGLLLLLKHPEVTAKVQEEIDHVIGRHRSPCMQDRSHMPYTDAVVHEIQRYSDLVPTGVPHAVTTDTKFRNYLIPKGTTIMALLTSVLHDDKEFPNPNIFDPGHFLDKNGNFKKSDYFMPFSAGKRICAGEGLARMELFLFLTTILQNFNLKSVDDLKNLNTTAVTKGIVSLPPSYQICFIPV

SMILES: COc1cccc(NCC(F)Cn2c3ccc(Br)cc3c3cc(Br)ccc32)n1 (racemic) [P7C3-S243, N-(3-(3,6-dibromo-9H-carbazol-9-yl)-2-fluoropropyl)-6-methoxypyridin-2-amine]
- protection (MTT) [1]: significant protection
- protein binding (Protein binding): high
- impact on weight, behavior or appearance ([2]; up to 10 mg/kg/d for 21 d): no negative impact
- axonal degeneration, cerebellar molecular layer (degenerating axons; 0.3 mg/kg/day): Extensive axonal degeneration
- silver staining in CA1, corpus callosum, thalamus, cortex, olfactory bulb, striatum, dentate gyrus, cerebellum (degenerating axons; 0.3 mg/kg/day): prominent silver staining of degenerating axons
- axonal degeneration, cerebellar molecular layer (degenerating axons; 3 and 30 mg/kg/day): blocked
- axonal degeneration, CA1 stratum radiatum (degenerating axons; 3 and 30 mg/kg/day from 24 hours after injury): blocked
- axonal and cellular degeneration, thalamus, cortex, CA1 (degenerating axons; 14 days after injury, treatment from 24 hours, FIG. 7): ameliorated
- activity relative to P7C3 and P7C3-A20 ([3]; ICV, 1 week, FIG. 1): superior to P7C3 and comparable to P7C3-A20
- number of surviving newborn hippocampal neurons ([3]; ICV, 1 week, FIG. 1): approximately doubled
- dose at ceiling of efficacy ([3]; administered intraperitoneally): 10 mg/kg/day
- dose at which active ([3]; administered intraperitoneally): 1 mg/kg/day
- T1/2 [4]: > 4 h
- TH and NeuN immunofluorescence of the SNc (6-OHDA-exposed rats; 10 mg/kg/day for 7 days): preservation of co-localized tyrosine hydroxylase (TH) and NeuN
- TH-positive cells compared to 6-OHDA-Vehicle group (6-OHDA-exposed rats; [7]): significant increase
- ipsilateral rotations (amphetamine-circling) of 6-OHDA+vehicle animals compared to 6-OHDA+compound animals (6-OHDA-exposed rats; [7]): significant increase
- total distance traveled (open field) of 6-OHDA+vehicle animals compared to 6-OHDA+compound animals (6-OHDA-exposed rats; [7]): significant decrease
- total rearings (cylinder test) of 6-OHDA+vehicle animals compared to 6-OHDA+compound animals (6-OHDA-exposed rats; [7]): significant decrease
- striatal concentration of dopamine, DOPAC, and homovanillic acid compared to 6-OHDA-Vehicle group (6-OHDA-exposed rats; 10 mg/kg/day, 7 days after 6-OHDA, HPLC): significant increase
- TH-positive cells compared to 6-OHDA-Vehicle group (6-OHDA-exposed rats; [8]): significant increase
- ipsilateral rotations (amphetamine-circling) of 6-OHDA+vehicle animals compared to 6-OHDA+compound animals (6-OHDA-exposed rats; [8]): significant increase
- total distance traveled (open field) of 6-OHDA+vehicle animals compared to 6-OHDA+compound animals (6-OHDA-exposed rats; [8]): significant decrease
- total rearings (cylinder test) of 6-OHDA+vehicle animals compared to 6-OHDA+compound animals (6-OHDA-exposed rats; [8]): significant decrease

SMILES: COc1cccc(NCC(F)Cn2c3ccc(Br)cc3c3cc(Br)ccc32)n1 (single isomer, unassigned; (-)) [(−)-P7C3-S243, (−)-N-(3-(3,6-dibromo-9H-carbazol-9-yl)-2-fluoropropyl)-6-methoxypyridin-2-amine]
- sensitivity of cytochrome P450 (2B6): insensitive
- IC50 (H2122): > 10 µM
- axonal degeneration, CA1 stratum radiatum (degenerating axons; [9]): complete protection from axonal degeneration
- axonal degeneration, cerebellar molecular layer (degenerating axons; [9]): blocked
- silver staining in CA1, corpus callosum, thalamus, cortex, olfactory bulb, striatum, dentate gyrus, cerebellum (degenerating axons; [9]): protected from axonal degeneration
- neuroprotective activity of pure enantiomers ([3]; ICV 0.5 μL/h, 7 days, FIG. 2): highly active; also recorded: high activity
- time spent in the escape area (blast-injured mice; 3 mg/kg/day begun 10 months after injury, after 4 and 8 weeks): sustained improvement in cognitive function
- cognition relative to vehicle group after withdrawal (blast-injured mice; after 8 weeks of treatment, then withdrawn): sustained improvement in cognition
- sensitivity of cytochrome P450 (2C8): insensitive

SMILES: COc1cccc(NCC(F)Cn2c3ccc(Br)cc3c3cc(Br)ccc32)c1 (stereo not drawn) [P7C3-A20, N-(3-(3,6-dibromo-9H-carbazol-9-yl)-2-fluoropropyl)-3-methoxyaniline]
- protection (MTT) [1]: significant protection
- impact on weight, behavior or appearance ([2]; up to 40 mg/kg/d for 21 d): no negative impact
- motor neuron cell death in the spinal cord [5]: minimize motor neuron cell death
- maximal enhancement of NAD [6]: 20-30%
- level of compound required for maximal Dox:Tox protection (U2OS cells): 3 µM
- protection from doxorubicin-mediated cell toxicity (U2OS cells; U2OS cells, FIG. 11): dose-responsive activity
- TH-positive cells compared to 6-OHDA-Vehicle group (6-OHDA-exposed rats; [8]): significant increase
- ipsilateral rotations (amphetamine-circling) of 6-OHDA+vehicle animals compared to 6-OHDA+compound animals (6-OHDA-exposed rats; [8]): significant increase
- total distance traveled (open field) of 6-OHDA+vehicle animals compared to 6-OHDA+compound animals (6-OHDA-exposed rats; [8]): significant decrease
- total rearings (cylinder test) of 6-OHDA+vehicle animals compared to 6-OHDA+compound animals (6-OHDA-exposed rats; [8]): significant decrease
